Data: US6552080B1, “Fungicidal compounds having a fluorovinyl-or fluoropropenyl-oxyphenyloxime moiety and process for the preparation thereof” (Korea Research Institute of Chemical Technology, priority 1999, dated 2003)

test system: Pyricularia oryzae Carvara KA301; assay: not given; type: in vivo; details: Rice Blast; concentration 2 ppm

Structure (SMILES)	RCV (Fungicidal Activities, C.V.) [%]
COC=C(C(=O)OC)c1ccccc1CON=Cc1cccc(OC(F)=Cc2ccc(F)cc2)c1 [Compound 12]	33
CCOc1ccc(C=C(F)Oc2cccc(C=NOCc3ccccc3C(=NOC)C(=O)NC)c2)cc1 [Compound 36]	88
COC=C(C(=O)OC)c1ccccc1CON=C(C)c1cccc(OC(F)=C(c2cccc(OC)c2)C(F)(F)F)c1 [Compound 157]	33
CNC(=O)C(=COC)c1ccccc1CON=C(C)c1cccc(OC(F)=Cc2ccc(C)cc2)c1 [Compound 57]	95
COC=C(C(=O)OC)c1ccccc1CON=Cc1cccc(OC(F)=C(c2cccc(C)c2)C(F)(F)F)c1 [Compound 104]	25
CON=C(C(=O)OC)c1ccccc1CON=C(C)c1cccc(OC(F)=Cc2ccc(C)c(C)c2)c1 [Compound 67]	100
COC=C(C(=O)OC)c1ccccc1CON=Cc1cccc(OC(F)=Cc2ccc(OC)cc2)c1 [Compound 9]	8
CON=C(C(=O)OC)c1ccccc1CON=C(C)c1cccc(OC(F)=Cc2cccc(C)c2)c1 [Compound 65]	100

same assay, conditions: Rice Blast; concentration 10 ppm

Structure (SMILES)	RCV (Fungicidal Activities, C.V.) [%]
COC=C(C(=O)OC)c1ccccc1CON=Cc1cccc(OC(F)=Cc2ccc(F)cc2)c1 [Compound 12]	93
COC=C(C(=O)OC)c1ccccc1CON=C(C)c1cccc(OC(F)=C(c2cccc(OC)c2)C(F)(F)F)c1 [Compound 157]	76
COC=C(C(=O)OC)c1ccccc1CON=Cc1cccc(OC(F)=C(c2cccc(C)c2)C(F)(F)F)c1 [Compound 104]	75
CON=C(C(=O)OC)c1ccccc1CON=C(C)c1cccc(OC(F)=Cc2ccc(C)c(C)c2)c1 [Compound 67]	100
COC=C(C(=O)OC)c1ccccc1CON=Cc1cccc(OC(F)=Cc2ccc(OC)cc2)c1 [Compound 9]	83
CON=C(C(=O)OC)c1ccccc1CON=C(C)c1cccc(OC(F)=Cc2cccc(C)c2)c1 [Compound 65]	100

same assay, conditions: Rice Blast; concentration 50 ppm

Structure (SMILES)	RCV (Fungicidal Activities, C.V.) [%]
COC=C(C(=O)OC)c1ccccc1CON=Cc1cccc(OC(F)=Cc2ccc(F)cc2)c1 [Compound 12]	98
CCOc1ccc(C=C(F)Oc2cccc(C=NOCc3ccccc3C(=NOC)C(=O)NC)c2)cc1 [Compound 36]	100
COC=C(C(=O)OC)c1ccccc1CON=C(C)c1cccc(OC(F)=C(c2cccc(OC)c2)C(F)(F)F)c1 [Compound 157]	93
CNC(=O)C(=COC)c1ccccc1CON=C(C)c1cccc(OC(F)=Cc2ccc(C)cc2)c1 [Compound 57]	99
COC=C(C(=O)OC)c1ccccc1CON=Cc1cccc(OC(F)=C(c2cccc(C)c2)C(F)(F)F)c1 [Compound 104]	96
CON=C(C(=O)OC)c1ccccc1CON=C(C)c1cccc(OC(F)=Cc2ccc(C)c(C)c2)c1 [Compound 67]	100
COC=C(C(=O)OC)c1ccccc1CON=Cc1cccc(OC(F)=Cc2ccc(OC)cc2)c1 [Compound 9]	100
CON=C(C(=O)OC)c1ccccc1CON=C(C)c1cccc(OC(F)=Cc2cccc(C)c2)c1 [Compound 65]	100

test system: Botrytis cinerae; assay: Fungicidal activity against Cucumber Gray Mold Rot (CGM) disease; type: in vivo; details: Cucumber Gray Mold Rot; concentration 50 ppm

Structure (SMILES)	CGM (Fungicidal Activities, C.V.) [%]
COC=C(C(=O)OC)c1ccccc1CON=Cc1cccc(OC(F)=Cc2ccc(F)cc2)c1 [Compound 12]	52
CCOc1ccc(C=C(F)Oc2cccc(C=NOCc3ccccc3C(=NOC)C(=O)NC)c2)cc1 [Compound 36]	0
COC=C(C(=O)OC)c1ccccc1CON=C(C)c1cccc(OC(F)=C(c2cccc(OC)c2)C(F)(F)F)c1 [Compound 157]	68
CNC(=O)C(=COC)c1ccccc1CON=C(C)c1cccc(OC(F)=Cc2ccc(C)cc2)c1 [Compound 57]	8
COC=C(C(=O)OC)c1ccccc1CON=Cc1cccc(OC(F)=C(c2cccc(C)c2)C(F)(F)F)c1 [Compound 104]	0
CON=C(C(=O)OC)c1ccccc1CON=C(C)c1cccc(OC(F)=Cc2ccc(C)c(C)c2)c1 [Compound 67]	37
COC=C(C(=O)OC)c1ccccc1CON=Cc1cccc(OC(F)=Cc2ccc(OC)cc2)c1 [Compound 9]	53
CON=C(C(=O)OC)c1ccccc1CON=C(C)c1cccc(OC(F)=Cc2cccc(C)c2)c1 [Compound 65]	71

test system: Phytophthora infestans; assay: not given; type: in vivo; details: Tomato Late Blight; concentration 50 ppm

Structure (SMILES)	TLB (Fungicidal Activities, C.V.) [%]
COC=C(C(=O)OC)c1ccccc1CON=Cc1cccc(OC(F)=Cc2ccc(F)cc2)c1 [Compound 12]	83
CCOc1ccc(C=C(F)Oc2cccc(C=NOCc3ccccc3C(=NOC)C(=O)NC)c2)cc1 [Compound 36]	0
COC=C(C(=O)OC)c1ccccc1CON=C(C)c1cccc(OC(F)=C(c2cccc(OC)c2)C(F)(F)F)c1 [Compound 157]	6
CNC(=O)C(=COC)c1ccccc1CON=C(C)c1cccc(OC(F)=Cc2ccc(C)cc2)c1 [Compound 57]	0
COC=C(C(=O)OC)c1ccccc1CON=Cc1cccc(OC(F)=C(c2cccc(C)c2)C(F)(F)F)c1 [Compound 104]	0
CON=C(C(=O)OC)c1ccccc1CON=C(C)c1cccc(OC(F)=Cc2ccc(C)c(C)c2)c1 [Compound 67]	0
COC=C(C(=O)OC)c1ccccc1CON=Cc1cccc(OC(F)=Cc2ccc(OC)cc2)c1 [Compound 9]	12
CON=C(C(=O)OC)c1ccccc1CON=C(C)c1cccc(OC(F)=Cc2cccc(C)c2)c1 [Compound 65]	0

test system: Puccinia recondita; assay: Fungicidal activity against Wheat Leaf Rust (WLR) disease; type: in vivo; details: Wheat Leaf Rust; concentration 2 ppm

Structure (SMILES)	WLR (Fungicidal Activities, C.V.) [%]
COC=C(C(=O)OC)c1ccccc1CON=Cc1cccc(OC(F)=Cc2ccc(F)cc2)c1 [Compound 12]	100
CCOc1ccc(C=C(F)Oc2cccc(C=NOCc3ccccc3C(=NOC)C(=O)NC)c2)cc1 [Compound 36]	0
COC=C(C(=O)OC)c1ccccc1CON=C(C)c1cccc(OC(F)=C(c2cccc(OC)c2)C(F)(F)F)c1 [Compound 157]	98
CNC(=O)C(=COC)c1ccccc1CON=C(C)c1cccc(OC(F)=Cc2ccc(C)cc2)c1 [Compound 57]	27
COC=C(C(=O)OC)c1ccccc1CON=Cc1cccc(OC(F)=C(c2cccc(C)c2)C(F)(F)F)c1 [Compound 104]	66
CON=C(C(=O)OC)c1ccccc1CON=C(C)c1cccc(OC(F)=Cc2ccc(C)c(C)c2)c1 [Compound 67]	99
COC=C(C(=O)OC)c1ccccc1CON=Cc1cccc(OC(F)=Cc2ccc(OC)cc2)c1 [Compound 9]	95
CON=C(C(=O)OC)c1ccccc1CON=C(C)c1cccc(OC(F)=Cc2cccc(C)c2)c1 [Compound 65]	99

same assay, conditions: Wheat Leaf Rust; concentration 10 ppm

Structure (SMILES)	WLR (Fungicidal Activities, C.V.) [%]
COC=C(C(=O)OC)c1ccccc1CON=Cc1cccc(OC(F)=Cc2ccc(F)cc2)c1 [Compound 12]	100
COC=C(C(=O)OC)c1ccccc1CON=C(C)c1cccc(OC(F)=C(c2cccc(OC)c2)C(F)(F)F)c1 [Compound 157]	100
COC=C(C(=O)OC)c1ccccc1CON=Cc1cccc(OC(F)=C(c2cccc(C)c2)C(F)(F)F)c1 [Compound 104]	93
CON=C(C(=O)OC)c1ccccc1CON=C(C)c1cccc(OC(F)=Cc2ccc(C)c(C)c2)c1 [Compound 67]	100
COC=C(C(=O)OC)c1ccccc1CON=Cc1cccc(OC(F)=Cc2ccc(OC)cc2)c1 [Compound 9]	98
CON=C(C(=O)OC)c1ccccc1CON=C(C)c1cccc(OC(F)=Cc2cccc(C)c2)c1 [Compound 65]	100

same assay, conditions: Wheat Leaf Rust; concentration 50 ppm

Structure (SMILES)	WLR (Fungicidal Activities, C.V.) [%]
COC=C(C(=O)OC)c1ccccc1CON=Cc1cccc(OC(F)=Cc2ccc(F)cc2)c1 [Compound 12]	100
CCOc1ccc(C=C(F)Oc2cccc(C=NOCc3ccccc3C(=NOC)C(=O)NC)c2)cc1 [Compound 36]	93
COC=C(C(=O)OC)c1ccccc1CON=C(C)c1cccc(OC(F)=C(c2cccc(OC)c2)C(F)(F)F)c1 [Compound 157]	100
CNC(=O)C(=COC)c1ccccc1CON=C(C)c1cccc(OC(F)=Cc2ccc(C)cc2)c1 [Compound 57]	98
COC=C(C(=O)OC)c1ccccc1CON=Cc1cccc(OC(F)=C(c2cccc(C)c2)C(F)(F)F)c1 [Compound 104]	97
CON=C(C(=O)OC)c1ccccc1CON=C(C)c1cccc(OC(F)=Cc2ccc(C)c(C)c2)c1 [Compound 67]	100
COC=C(C(=O)OC)c1ccccc1CON=Cc1cccc(OC(F)=Cc2ccc(OC)cc2)c1 [Compound 9]	100
CON=C(C(=O)OC)c1ccccc1CON=C(C)c1cccc(OC(F)=Cc2cccc(C)c2)c1 [Compound 65]	100

test system: Erysiphae graminis; assay: Fungicidal activity against Barley Powdery Mildew (BPM) disease; type: in vivo; details: Barley Powdery Mildew; concentration 2 ppm

Structure (SMILES)	BPM (Fungicidal Activities, C.V.) [%]
COC=C(C(=O)OC)c1ccccc1CON=Cc1cccc(OC(F)=Cc2ccc(F)cc2)c1 [Compound 12]	98
CCOc1ccc(C=C(F)Oc2cccc(C=NOCc3ccccc3C(=NOC)C(=O)NC)c2)cc1 [Compound 36]	0
COC=C(C(=O)OC)c1ccccc1CON=C(C)c1cccc(OC(F)=C(c2cccc(OC)c2)C(F)(F)F)c1 [Compound 157]	97
CNC(=O)C(=COC)c1ccccc1CON=C(C)c1cccc(OC(F)=Cc2ccc(C)cc2)c1 [Compound 57]	0
COC=C(C(=O)OC)c1ccccc1CON=Cc1cccc(OC(F)=C(c2cccc(C)c2)C(F)(F)F)c1 [Compound 104]	80
CON=C(C(=O)OC)c1ccccc1CON=C(C)c1cccc(OC(F)=Cc2ccc(C)c(C)c2)c1 [Compound 67]	99
COC=C(C(=O)OC)c1ccccc1CON=Cc1cccc(OC(F)=Cc2ccc(OC)cc2)c1 [Compound 9]	55
CON=C(C(=O)OC)c1ccccc1CON=C(C)c1cccc(OC(F)=Cc2cccc(C)c2)c1 [Compound 65]	99

same assay, conditions: Barley Powdery Mildew; concentration 10 ppm

Structure (SMILES)	BPM (Fungicidal Activities, C.V.) [%]
COC=C(C(=O)OC)c1ccccc1CON=Cc1cccc(OC(F)=Cc2ccc(F)cc2)c1 [Compound 12]	100
COC=C(C(=O)OC)c1ccccc1CON=C(C)c1cccc(OC(F)=C(c2cccc(OC)c2)C(F)(F)F)c1 [Compound 157]	99
COC=C(C(=O)OC)c1ccccc1CON=Cc1cccc(OC(F)=C(c2cccc(C)c2)C(F)(F)F)c1 [Compound 104]	99
CON=C(C(=O)OC)c1ccccc1CON=C(C)c1cccc(OC(F)=Cc2ccc(C)c(C)c2)c1 [Compound 67]	100
COC=C(C(=O)OC)c1ccccc1CON=Cc1cccc(OC(F)=Cc2ccc(OC)cc2)c1 [Compound 9]	99
CON=C(C(=O)OC)c1ccccc1CON=C(C)c1cccc(OC(F)=Cc2cccc(C)c2)c1 [Compound 65]	100

same assay, conditions: Barley Powdery Mildew; concentration 50 ppm

Structure (SMILES)	BPM (Fungicidal Activities, C.V.) [%]
COC=C(C(=O)OC)c1ccccc1CON=Cc1cccc(OC(F)=Cc2ccc(F)cc2)c1 [Compound 12]	100
CCOc1ccc(C=C(F)Oc2cccc(C=NOCc3ccccc3C(=NOC)C(=O)NC)c2)cc1 [Compound 36]	100
COC=C(C(=O)OC)c1ccccc1CON=C(C)c1cccc(OC(F)=C(c2cccc(OC)c2)C(F)(F)F)c1 [Compound 157]	100
CNC(=O)C(=COC)c1ccccc1CON=C(C)c1cccc(OC(F)=Cc2ccc(C)cc2)c1 [Compound 57]	98
COC=C(C(=O)OC)c1ccccc1CON=Cc1cccc(OC(F)=C(c2cccc(C)c2)C(F)(F)F)c1 [Compound 104]	100
CON=C(C(=O)OC)c1ccccc1CON=C(C)c1cccc(OC(F)=Cc2ccc(C)c(C)c2)c1 [Compound 67]	100
COC=C(C(=O)OC)c1ccccc1CON=Cc1cccc(OC(F)=Cc2ccc(OC)cc2)c1 [Compound 9]	100
CON=C(C(=O)OC)c1ccccc1CON=C(C)c1cccc(OC(F)=Cc2cccc(C)c2)c1 [Compound 65]	100

test system: Rhizoctonia solani AG-1; assay: Fungicidal activity against Rice Sheath Blight (RSB) disease; details: Rice Sheath Blight; concentration 2 ppm

Structure (SMILES)	RSB (Fungicidal Activities, C.V.) [%]
CON=C(C(=O)OC)c1ccccc1CON=C(C)c1cccc(OC(F)=Cc2ccc(C)c(C)c2)c1 [Compound 67]	10
CON=C(C(=O)OC)c1ccccc1CON=C(C)c1cccc(OC(F)=Cc2cccc(C)c2)c1 [Compound 65]	30

same assay, conditions: Rice Sheath Blight; concentration 10 ppm

Structure (SMILES)	RSB (Fungicidal Activities, C.V.) [%]
CON=C(C(=O)OC)c1ccccc1CON=C(C)c1cccc(OC(F)=Cc2ccc(C)c(C)c2)c1 [Compound 67]	43
CON=C(C(=O)OC)c1ccccc1CON=C(C)c1cccc(OC(F)=Cc2cccc(C)c2)c1 [Compound 65]	60

same assay, conditions: Rice Sheath Blight; concentration 50 ppm

Structure (SMILES)	RSB (Fungicidal Activities, C.V.) [%]
COC=C(C(=O)OC)c1ccccc1CON=Cc1cccc(OC(F)=Cc2ccc(F)cc2)c1 [Compound 12]	70
CCOc1ccc(C=C(F)Oc2cccc(C=NOCc3ccccc3C(=NOC)C(=O)NC)c2)cc1 [Compound 36]	0
COC=C(C(=O)OC)c1ccccc1CON=C(C)c1cccc(OC(F)=C(c2cccc(OC)c2)C(F)(F)F)c1 [Compound 157]	60
CNC(=O)C(=COC)c1ccccc1CON=C(C)c1cccc(OC(F)=Cc2ccc(C)cc2)c1 [Compound 57]	47
COC=C(C(=O)OC)c1ccccc1CON=Cc1cccc(OC(F)=C(c2cccc(C)c2)C(F)(F)F)c1 [Compound 104]	45
CON=C(C(=O)OC)c1ccccc1CON=C(C)c1cccc(OC(F)=Cc2ccc(C)c(C)c2)c1 [Compound 67]	100
COC=C(C(=O)OC)c1ccccc1CON=Cc1cccc(OC(F)=Cc2ccc(OC)cc2)c1 [Compound 9]	50
CON=C(C(=O)OC)c1ccccc1CON=C(C)c1cccc(OC(F)=Cc2cccc(C)c2)c1 [Compound 65]	100
